Common to all, as to assay: two-electrode voltage clamp, Xenopus oocytes
Holding throughout (type): cell-based
(In general: Two-electrode voltage clamp is typically applied to oocytes expressing channels or transporters.)

For one experiment, the target named is T1, humTRPA1 (Homo sapiens, UniProt O75762).
T1 construct: gene TRPA1; human TRPA1; cRNA-injected Xenopus laevis oocytes (electrophysiology as for insect TRPA1s)

A further experiment addresses T2, agTRPA1(B) (Anopheles gambiae, UniProt B3G3I7).
T2 construct: isoform with TRPA1(B)-type N-terminus and exon6a-encoded BAT; cRNA-injected Xenopus laevis oocytes
T2 sequence (B3G3I7 1-1248): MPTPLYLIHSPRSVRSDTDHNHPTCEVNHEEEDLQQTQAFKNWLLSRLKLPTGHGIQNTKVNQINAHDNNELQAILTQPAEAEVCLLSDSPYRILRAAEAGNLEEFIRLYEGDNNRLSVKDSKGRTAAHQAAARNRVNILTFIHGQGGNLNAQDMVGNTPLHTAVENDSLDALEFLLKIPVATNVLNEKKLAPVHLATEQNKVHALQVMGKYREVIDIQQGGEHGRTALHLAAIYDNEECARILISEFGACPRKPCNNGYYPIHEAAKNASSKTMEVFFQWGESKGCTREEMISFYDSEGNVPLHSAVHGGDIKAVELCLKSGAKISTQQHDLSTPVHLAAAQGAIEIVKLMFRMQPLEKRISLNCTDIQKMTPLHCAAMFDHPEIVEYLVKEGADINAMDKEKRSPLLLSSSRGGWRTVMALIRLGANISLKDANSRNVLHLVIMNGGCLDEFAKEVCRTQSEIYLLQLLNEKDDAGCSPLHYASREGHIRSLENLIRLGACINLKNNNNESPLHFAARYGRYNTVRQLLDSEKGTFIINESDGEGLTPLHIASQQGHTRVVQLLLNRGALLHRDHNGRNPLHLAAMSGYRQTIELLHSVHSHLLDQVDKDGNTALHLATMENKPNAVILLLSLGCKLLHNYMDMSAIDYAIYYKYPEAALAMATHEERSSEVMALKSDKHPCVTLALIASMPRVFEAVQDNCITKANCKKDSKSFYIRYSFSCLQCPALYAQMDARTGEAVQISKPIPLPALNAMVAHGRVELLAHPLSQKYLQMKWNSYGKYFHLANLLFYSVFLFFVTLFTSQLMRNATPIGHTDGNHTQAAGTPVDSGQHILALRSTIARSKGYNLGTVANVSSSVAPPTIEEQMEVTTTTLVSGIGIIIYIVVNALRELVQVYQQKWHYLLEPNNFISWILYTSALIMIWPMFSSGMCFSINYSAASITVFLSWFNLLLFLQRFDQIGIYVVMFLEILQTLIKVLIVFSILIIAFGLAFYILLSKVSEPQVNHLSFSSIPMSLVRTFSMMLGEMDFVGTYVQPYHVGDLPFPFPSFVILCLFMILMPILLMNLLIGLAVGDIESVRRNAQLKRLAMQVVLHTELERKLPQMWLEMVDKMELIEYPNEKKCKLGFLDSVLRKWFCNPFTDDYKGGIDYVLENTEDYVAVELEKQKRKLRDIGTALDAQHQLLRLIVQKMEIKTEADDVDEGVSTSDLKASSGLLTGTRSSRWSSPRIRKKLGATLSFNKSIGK

In experiment [1] the target is T3, TRPA1(A) (TRPA1(A)-exon10a) (Drosophila melanogaster, UniProt Q7Z020).
T3 construct: full-length isoform with exon1a-encoded N-terminus and exon10a-encoded BAT domain; cRNA-injected Xenopus laevis oocytes
T3 sequence (Q7Z020 1-1197): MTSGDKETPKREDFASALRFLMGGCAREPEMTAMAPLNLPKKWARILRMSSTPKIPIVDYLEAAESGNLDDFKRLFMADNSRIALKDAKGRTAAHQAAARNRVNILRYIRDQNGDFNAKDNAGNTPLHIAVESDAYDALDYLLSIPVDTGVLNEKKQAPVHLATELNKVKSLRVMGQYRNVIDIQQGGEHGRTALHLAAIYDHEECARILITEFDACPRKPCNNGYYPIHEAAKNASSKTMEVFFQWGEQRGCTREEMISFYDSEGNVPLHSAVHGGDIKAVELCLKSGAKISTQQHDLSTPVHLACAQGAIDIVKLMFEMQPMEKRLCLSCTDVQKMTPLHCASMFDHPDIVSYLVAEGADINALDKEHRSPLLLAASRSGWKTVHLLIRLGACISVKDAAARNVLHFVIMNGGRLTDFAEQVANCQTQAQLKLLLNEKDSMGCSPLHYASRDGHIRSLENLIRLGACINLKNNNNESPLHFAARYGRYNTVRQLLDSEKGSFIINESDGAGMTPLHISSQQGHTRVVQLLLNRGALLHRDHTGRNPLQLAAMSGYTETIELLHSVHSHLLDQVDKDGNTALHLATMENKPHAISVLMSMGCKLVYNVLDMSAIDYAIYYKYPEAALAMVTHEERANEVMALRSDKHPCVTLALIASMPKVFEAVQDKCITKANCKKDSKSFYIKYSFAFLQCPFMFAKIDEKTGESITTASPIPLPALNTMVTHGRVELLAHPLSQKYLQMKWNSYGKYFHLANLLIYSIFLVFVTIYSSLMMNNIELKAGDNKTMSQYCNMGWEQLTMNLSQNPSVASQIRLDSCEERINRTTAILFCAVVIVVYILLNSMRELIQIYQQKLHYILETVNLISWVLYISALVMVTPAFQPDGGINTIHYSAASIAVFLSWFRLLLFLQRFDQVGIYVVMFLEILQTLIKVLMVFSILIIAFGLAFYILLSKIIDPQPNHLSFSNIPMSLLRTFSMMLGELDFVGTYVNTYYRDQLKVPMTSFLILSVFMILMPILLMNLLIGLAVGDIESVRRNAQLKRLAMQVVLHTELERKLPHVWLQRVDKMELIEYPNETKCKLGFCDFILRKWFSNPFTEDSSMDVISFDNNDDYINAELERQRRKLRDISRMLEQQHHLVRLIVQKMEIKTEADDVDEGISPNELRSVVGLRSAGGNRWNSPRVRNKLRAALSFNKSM

A further experiment concerns the target T4, agTRPA1(A) (Anopheles gambiae, UniProt A0A1S4GN50).
T4 construct: isoform with TRPA1(A)-type N-terminus and exon6a-encoded BAT; cRNA-injected Xenopus laevis oocytes
T4 sequence (A0A1S4GN50 1-1208): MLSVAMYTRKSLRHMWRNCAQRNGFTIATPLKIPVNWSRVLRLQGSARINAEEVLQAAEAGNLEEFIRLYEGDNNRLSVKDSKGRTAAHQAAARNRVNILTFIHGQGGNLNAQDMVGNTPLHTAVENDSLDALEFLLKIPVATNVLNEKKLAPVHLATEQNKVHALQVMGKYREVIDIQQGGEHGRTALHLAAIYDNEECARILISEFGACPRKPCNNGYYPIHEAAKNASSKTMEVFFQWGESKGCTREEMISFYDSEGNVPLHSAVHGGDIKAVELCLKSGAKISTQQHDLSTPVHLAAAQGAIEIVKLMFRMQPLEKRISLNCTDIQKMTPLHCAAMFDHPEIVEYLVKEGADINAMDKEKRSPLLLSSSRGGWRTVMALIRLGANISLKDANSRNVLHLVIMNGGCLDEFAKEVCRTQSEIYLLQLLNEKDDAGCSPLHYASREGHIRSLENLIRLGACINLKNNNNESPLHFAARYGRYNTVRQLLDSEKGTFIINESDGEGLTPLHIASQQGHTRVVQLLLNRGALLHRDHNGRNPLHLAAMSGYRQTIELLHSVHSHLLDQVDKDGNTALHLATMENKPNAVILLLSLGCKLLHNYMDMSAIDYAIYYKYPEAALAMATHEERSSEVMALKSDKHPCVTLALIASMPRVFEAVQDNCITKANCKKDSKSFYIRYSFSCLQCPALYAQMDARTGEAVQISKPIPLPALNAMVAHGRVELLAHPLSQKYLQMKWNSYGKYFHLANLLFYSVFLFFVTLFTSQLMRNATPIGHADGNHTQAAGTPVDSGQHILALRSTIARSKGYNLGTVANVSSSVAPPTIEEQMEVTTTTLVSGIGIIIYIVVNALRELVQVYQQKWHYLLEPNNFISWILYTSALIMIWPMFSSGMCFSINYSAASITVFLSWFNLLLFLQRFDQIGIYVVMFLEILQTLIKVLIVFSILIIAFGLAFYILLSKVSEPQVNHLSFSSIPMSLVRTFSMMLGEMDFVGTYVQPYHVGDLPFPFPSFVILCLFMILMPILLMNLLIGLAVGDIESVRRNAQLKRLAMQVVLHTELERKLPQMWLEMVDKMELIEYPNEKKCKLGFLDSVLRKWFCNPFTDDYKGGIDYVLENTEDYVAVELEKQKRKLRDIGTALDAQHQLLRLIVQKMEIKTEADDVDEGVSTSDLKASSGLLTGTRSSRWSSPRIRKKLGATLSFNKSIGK

EC50 data for one molecule are collected here from PMC11471635, “Linkage of alternative exon assembly in Drosophila TrpA1 transcripts” (Molecules and Cells, 2024).

The term EC50 denotes the midpoint of the concentration-response curve. Lower therefore signals higher potency in that assay.

T1 sequence (O75762 whole entry): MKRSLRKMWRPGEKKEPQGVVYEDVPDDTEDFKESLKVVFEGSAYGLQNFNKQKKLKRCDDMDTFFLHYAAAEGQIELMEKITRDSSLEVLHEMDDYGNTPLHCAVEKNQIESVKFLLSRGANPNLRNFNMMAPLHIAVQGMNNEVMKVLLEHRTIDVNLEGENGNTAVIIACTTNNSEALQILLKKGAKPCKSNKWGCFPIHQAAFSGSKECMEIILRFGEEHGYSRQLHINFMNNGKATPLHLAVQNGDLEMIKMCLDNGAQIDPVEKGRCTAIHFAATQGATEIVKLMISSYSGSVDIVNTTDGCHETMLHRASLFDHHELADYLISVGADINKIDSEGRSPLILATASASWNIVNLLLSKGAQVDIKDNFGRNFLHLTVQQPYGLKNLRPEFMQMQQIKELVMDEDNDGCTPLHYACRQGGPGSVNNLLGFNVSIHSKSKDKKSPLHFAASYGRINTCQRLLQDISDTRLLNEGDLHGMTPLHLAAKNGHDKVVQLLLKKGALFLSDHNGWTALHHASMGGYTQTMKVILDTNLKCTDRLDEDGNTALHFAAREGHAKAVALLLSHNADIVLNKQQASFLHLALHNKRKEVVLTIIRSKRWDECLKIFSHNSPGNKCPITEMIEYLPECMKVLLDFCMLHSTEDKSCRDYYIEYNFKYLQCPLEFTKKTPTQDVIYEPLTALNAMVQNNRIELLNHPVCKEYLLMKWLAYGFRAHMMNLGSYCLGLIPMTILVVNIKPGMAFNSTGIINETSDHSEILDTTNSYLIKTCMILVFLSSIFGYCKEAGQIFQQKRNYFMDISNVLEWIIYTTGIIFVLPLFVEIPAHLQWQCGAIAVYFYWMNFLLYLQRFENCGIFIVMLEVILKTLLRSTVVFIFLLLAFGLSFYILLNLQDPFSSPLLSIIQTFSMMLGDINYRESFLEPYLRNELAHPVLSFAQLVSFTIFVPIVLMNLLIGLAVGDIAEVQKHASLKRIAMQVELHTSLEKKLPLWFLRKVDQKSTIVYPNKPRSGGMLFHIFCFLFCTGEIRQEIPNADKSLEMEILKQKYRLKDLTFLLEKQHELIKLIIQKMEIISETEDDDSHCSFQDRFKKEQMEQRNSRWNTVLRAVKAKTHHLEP

Turning to `CN1C(=O)C=CC1=O` [N-methyl maleimide], the EC50 is 5.1 ± 0.5 µM at humTRPA1, 39.5 ± 1.1 µM on agTRPA1(B), 13.6 ± 0.6 µM in experiment [1] and 43.8 ± 3.9 µM at agTRPA1(A).
